Experimental data published in patent US20230039099A1, “AKT INHIBITORS FOR ENHANCING CHIMERIC T CELL PERSISTENCE” (H. Lee Moffitt Cancer Center and Research Institute, Inc., priority 2019, published 2023).

Experiments:
CAR T cells = experiment: CAR T cell memory phenotype by flow cytometry (LSRII), TCN added during CAR T cell production; assay type: cell-based, human; conditions: healthy donor PBMC T cells; TCN added on day 2 before first spin transduction; flow cytometry on day 7
Procedure: FIGS. 1A to 1G show TCN increases central memory CAR T cell population. T cells were isolated from healthy donor PBMCs using negative selection. TCN was added on day 2 before the first spin transduction. On day 7 cells were stained for flow cytometry and run on an LSRII.
T cells were isolated from healthy donor PBMCs using negative selection. TCN was added on day 2 before the first spin transduction. On day 7 cells were stained for flow cytometry and run on an LSRII.
For the anti-human CD19 constructs the SFG backbone was modified to include the FMC63 ScFv with a CD8a trans-membrane and hinge domain followed by either CD28 or 4-1BB, and CD3. All SFG constructs were calcium phosphate transfected into H29 cells. Retroviral supernatants of transfected H29 were harvested and used to transduce Phoenix E or RD114 cells. Retroviral supernatant of producer cells was harvested, 0.45 μm filtered, and used to transduce T cells as described. Viability was measured by trypan blue staining and enumerated on an automated cell counter (Bio-Rad). Transduction efficiency was estimated by flow cytometry as a percentage of protein L+ live cells. For downstream experiments CAR T cell doses were normalized based on CAR gene transfer but not sorted to exclude CAR-negative T cells. As a result, total T cell dose was varied.

p-Akt = p-Akt western blot in m1928z CAR T cells stimulated with 3T3-mCD19 targets; assay type: cell-based, mouse (C57BL6); conditions: C57BL6 splenocyte T cells, TCN added on day 2, day 5 stimulation with 3T3-mCD19 targets for 24 hrs
Procedure: T cells were isolated from C57BL6 splenocyes using negative selection. TCN was added on day 2 before the first spin transduction. On day 5 CAR T cells were stimulated with 3T3-mCD19 targets for 24 hrs. After stimulation cells were lysed and run by western blot. […] T cells were isolated from C57BL6 splenocyes using negative selection. TCN was added on day 2 before the first spin transduction. On day 5 CAR T cells were stimulated with 3T3-mCD19 targets for 24 hrs. After stimulation cells were lysed and run by western blot.

T cells = experiment: Toxicity of TCN for T cells; assay type: cell-based; conditions: human healthy donor T cells, in vitro
Procedure: Previous studies have shown drugs given during CART cell production can influence their function. To determine the effect of TCN human healthy donor T cells are treated with TCN prior to CAR transduction. 10 μM of TCN is used because it is the highest non-toxic dose for T cells. After transduction and proliferation in culture in vitro assays are preformed to determine CAR T cell function. These include cytotoxicity, cytokine secretion, RNA-seq, polyfunctional strength index, and CAR T cell phenotype. We next evaluate the function of CAR T cells given TCN during production in vivo. A total of 60 NSG mice are given the human B cell tumor cell line NALM6 containing luciferase on day −7. On day 0, 10 mice per group will be given untransduced, h1928z, or h19BBz CAR T cells produced with or without TCN. Bioluminescence imaging is used to determine tumor burden and measure overall survival.

h19BBz CAR T cells [1] = experiment: Cytokine secretion of h19BBz CAR T cells stimulated with target cells for 24 hrs (Ella); assay type: cell-based, human; conditions: healthy donor T cells; TCN added on day 2; target cell stimulation 24 hrs; supernatant run on Ella
Procedure: (§1) T cells were isolated from healthy donor PBMCs using negative selection. TCN was added on day 2 before the first spin transduction. To measure real time cell killing CAR T cells were stimulated with 3T3-hCD19 target cells using an xCelligence RTCA machine. To measure cytokine secretion CAR T cells were stimulated with target cells for 24 hrs. Supernatant was then collected and run using Ella to measure cytokines. […] T cells were isolated from healthy donor PBMCs using negative selection. TCN was added on day 2 before the first spin transduction. To measure real time cell killing CAR T cells were stimulated with 3T3-hCD19 target cells using an xCelligence RTCA machine. To measure cytokine secretion CAR T cells were stimulated with target cells for 24 hrs. Supernatant was then collected and run using Ella to measure cytokines.

h19BBz CAR T cells [2] = experiment: Real time cell killing of 3T3-hCD19 target cells by h19BBz CAR T cells (xCelligence RTCA); assay type: cell-based, human; conditions: healthy donor T cells, TCN added on day 2
Procedure: as §1

## CN1N=C(N)c2cn([C@@H]3O[C@H](COP(=O)(O)O)[C@@H](O)[C@H]3O)c3ncnc1c23 [TCN, Triciribine]
CAR T cells
  central memory CAR T cell population: increases
  effector memory CAR T cell population: increases
p-Akt
  p-Akt in m1928z CAR T cells: inhibits
T cells
  highest non-toxic dose for T cells: 10 µM
h19BBz CAR T cells [1]
  h19BBz CAR cytokine secretion: reduces
h19BBz CAR T cells [2]
  h19BBz CAR killing: reduces
